# Results: patent US12358920B2, “Substituted pyrrolo[2,3-d]pyrimidines as selective CDK 4/6 inhibitors” (LUNELLA BIOTECH, INC., priority 2019, dated 2025)
# Legend:
# [1] = tested on: MCF7; experiment: Mammosphere formation assay (3D-mammosphere assay); assay type: cell-based, human; conditions: for inhibition of MCF7 cells in the mammosphere assay compared to parent compound: concentrations from 1 μM to 100 μM; for SI (mammosphere/monolayer MCF7): mammosphere selectivity index, ratio between IC50 values in the 3D and 2D assays against MCF7
# Source text: As used in the tables, “IC50 (MCF7 mammosphere)” refers to the half maximal inhibitory concentration in the 3D-mammosphere assay, using the ER+ breast cancer cell line, MCF7. The term “IC50 (MCF7 monolayer)” refers to the half maximal inhibitory concentration in the 2D-cell viability assay, using the ER+ breast cancer cell line, MCF7. The term “IC50 (BJ1 monolayer)” refers to the half maximal inhibitory concentration in the 2D-cell viability assay, using the immortalized non-tumoral fibroblast cell line, hTERT-BJ1. The term “SI (mammosphere/monolayer MCF7)” refers to the mammosphere selectivity index, a ratio between IC50 values comparing the biological activity in the 3D and 2D assays against MCF7. The term “SI (BJ1/MCF7 monolayer)” refers to the cancer selectivity index, a ratio between IC50 values comparing the biological activity in the cell viability assays against MCF7 and hTERT-BJ1.
# FIGS. 1-3 are dose-response curves for various compounds described herein, using the mammosphere assay. The assay was performed using the MCF7 cell line. The curves are plotted as a mean of two independent experiments, and the standard deviation for each point is represented by vertical bars. The inhibition percentage is shown as a function of the log of the concentration (μM). […] Similar effects are expected for compounds having the general formula [1D].
# With respect to cell culture and reagents, the human breast adenocarcinoma cell line (MCF-7) was from the American Type Culture Collection (ATCC). hTERT-BJ1 cells were from Clontech, Inc. MCF-7 and hTERT-BJ1 cells were grown in DMEM supplemented with 10% fetal bovine serum, GlutaMAX and 1% penicillin-streptomycin and incubated at 37C in a humidified 5% CO2 incubator. The medium was changed 2-3 times/week.
# Mammosphere formation assay: A single cell suspension was prepared using enzymatic (lx Trypsin-EDTA, Sigma Aldrich, cat. #T3924), and manual disaggregation (25 gauge needle). Five thousand cells were plated with in mammosphere medium (DMEM-F12/B27/20 ng/ml EGF/PenStrep), under non-adherent conditions, in six wells plates coated with 2-hydroxyethylmethacrylate (poly-HEMA, Sigma, cat. #P3932). Cells were grown for 5 days and maintained in a humidified incubator at 37° C. at an atmospheric pressure in 5% (v/v) carbon dioxide/air. After 5 days, 3D spheroids with a diameter greater than 50 μm were counted using a microscope, fitted with a graticule eye-piece, and the percentage of cells which formed spheroids was calculated and normalized to one (1=100% MFE; mammosphere forming efficiency). Mammosphere assays were performed in triplicate and repeated three times independently.
# [2] = tested on: MCF7; experiment: Hoechst-based 2D-cell viability assay, MCF7 monolayer; design: species or system human
# Source text: As used in the tables, “IC50 (MCF7 mammosphere)” refers to the half maximal inhibitory concentration in the 3D-mammosphere assay, using the ER+ breast cancer cell line, MCF7. The term “IC50 (MCF7 monolayer)” refers to the half maximal inhibitory concentration in the 2D-cell viability assay, using the ER+ breast cancer cell line, MCF7. The term “IC50 (BJ1 monolayer)” refers to the half maximal inhibitory concentration in the 2D-cell viability assay, using the immortalized non-tumoral fibroblast cell line, hTERT-BJ1. The term “SI (mammosphere/monolayer MCF7)” refers to the mammosphere selectivity index, a ratio between IC50 values comparing the biological activity in the 3D and 2D assays against MCF7. The term “SI (BJ1/MCF7 monolayer)” refers to the cancer selectivity index, a ratio between IC50 values comparing the biological activity in the cell viability assays against MCF7 and hTERT-BJ1. […] Cell viability was assessed using Hoechst 33342, a nuclear dye that stains DNA in live cells. The viability of normal human fibroblasts (hTERT-BJ1) treated with the compounds described herein was also assessed in parallel. Quantitation was performed with a plate-reader.
# [3] = tested on: hTERT-BJ1; experiment: Hoechst-based 2D-cell viability assay, hTERT-BJ1 monolayer; design: species or system human; conditions: for toxicity in the non-tumoral cell line hTERT-BJ1: up to the concentration of 90 μM
# Source text: As used in the tables, “IC50 (MCF7 mammosphere)” refers to the half maximal inhibitory concentration in the 3D-mammosphere assay, using the ER+ breast cancer cell line, MCF7. The term “IC50 (MCF7 monolayer)” refers to the half maximal inhibitory concentration in the 2D-cell viability assay, using the ER+ breast cancer cell line, MCF7. The term “IC50 (BJ1 monolayer)” refers to the half maximal inhibitory concentration in the 2D-cell viability assay, using the immortalized non-tumoral fibroblast cell line, hTERT-BJ1. The term “SI (mammosphere/monolayer MCF7)” refers to the mammosphere selectivity index, a ratio between IC50 values comparing the biological activity in the 3D and 2D assays against MCF7. The term “SI (BJ1/MCF7 monolayer)” refers to the cancer selectivity index, a ratio between IC50 values comparing the biological activity in the cell viability assays against MCF7 and hTERT-BJ1. With respect to cell culture and reagents, the human breast adenocarcinoma cell line (MCF-7) was from the American Type Culture Collection (ATCC). hTERT-BJ1 cells were from Clontech, Inc. MCF-7 and hTERT-BJ1 cells were grown in DMEM supplemented with 10% fetal bovine serum, GlutaMAX and 1% penicillin-streptomycin and incubated at 37C in a humidified 5% CO2 incubator. The medium was changed 2-3 times/week. A Hoechst-based viability assay was used to characterize the selectivity of compounds according to the present approach, for the preferential targeting of cancer cells. Briefly, MCF7 cell monolayers were treated with a compound at concentrations ranging from 1 μM to 100 μM, for a period of one day. Cell viability was assessed using Hoechst 33342, a nuclear dye that stains DNA in live cells. The viability of normal human fibroblasts (hTERT-BJ1) treated with the compounds described herein was also assessed in parallel. Quantitation was performed with a plate-reader.
SMILES,inhibition of MCF7 cells in the mammosphere assay compared to parent compound [1],toxicity in the non-tumoral cell line hTERT-BJ1 [3],SI (mammosphere/monolayer MCF7) [1],other results
"CCCCCCCCCCCCCC(=O)N1CCN(c2ccc(Nc3ncc4c(C)c(C(C)=O)c(=O)n(C5CCCC5)c4n3)nc2)CC1 [Compound [2C], 6-acetyl-8-cyclopentyl-5-methyl-2-[[5-(4-tetradecanoylpiperazin-1-yl)-2-pyridyl]amino]pyrido[2,3-d]pyrimidin-7-one]",remarkably improved inhibition,non-toxic,–,"toxicity in the 2D-cell viability assay ([2]; MCF7 monolayer, up to a concentration of 30 μM): non-toxic"
"CC(=O)c1c(C)c2cnc(Nc3ccc(N4CCNCC4)cn3)nc2n(C2CCCC2)c1=O [Palbociclib, 6-acetyl-8-cyclopentyl-5-methyl-2-(5-piperazin-1-yl-pyridin-2-ylamino)-8H-pyrido[2,3-d]pyrimidin-7-one, reference compound]",–,non-toxic,non-selective,–
"CCN1CCN(Cc2ccc(Nc3ncc(F)c(-c4cc(F)c5nc(C)n(C(C)C)c5c4)n3)nc2)CC1 [Abemaciclib, N-[5-[(4-ethylpiperazin-1-yl)methyl]pyridin-2-yl]-5-fluoro-4-(7-fluoro-2-methyl-3-propan-2-ylbenzimidazol-5-yl)pyrimidin-2-amine, reference compound]",–,–,>250,"IC50 ([3]; Homo sapiens, Table 3, unit inferred, 2D-cell viability assay, hTERT-BJ1): 30 ± 6 µM"
"CN(C)C(=O)c1cc2cnc(Nc3ccc(N4CCNCC4)cn3)nc2n1C1CCCC1 [Ribociclib, 7-cyclopentyl-N,N-dimethyl-2-[(5-piperazin-1-ylpyridin-2-yl)amino]pyrrolo[2,3-d]pyrimidine-6-carboxamide]",–,non-toxic,–,"potency on hTERT-BJ1 compared to Compound [1C] (dose-response curves, FIG. 7) ([3]; Hoechst staining assay, hTERT-BJ1): more potent at most concentrations tested"
"CCCCCCCCCCCCCC(=O)N1CCN(c2ccc(Nc3ncc4cc(C(=O)N(C)C)n(C5CCCC5)c4n3)nc2)CC1 [Compound [1C], 7-cyclopentyl-N,N-dimethyl-2-[[5-(4-tetradecanoylpiperazin-1-yl)-2-pyridyl]amino]pyrrolo[2,3-d]pyrimidine-6-carboxamide]",remarkably improved inhibition,non-toxic,–,"improvement in potency in the 3D-mammosphere assay compared to the parent compound ([1]; IC50 ratio vs. Ribociclib): 7 fold; potency against MCF7 cells compared to parent compound (dose-response curves, FIG. 4) ([2]; Hoechst staining assay, MCF7, each concentration): more potent"
